These results are taken from publication PMC8330742, “New benzothieno[2,3-c]pyridines as non-steroidal CYP17 inhibitors: design, synthesis, anticancer screening, apoptosis induction, and in silico ADME profile studies” (Journal of Enzyme Inhibition and Medicinal Chemistry, 2021).

One data set has as its system OVCAR-5. The data set is described as follows: NCI-60 SRB screen. Format: cell-based, human. To be noted: Homo sapiens, single dose 10^−5 M, read-out: Growth inhibition (%).
The next data set has as its system OVCAR-8. The data set is described as follows: NCI-60 SRB screen. To be noted: Homo sapiens, single dose 10^−5 M, read-out: Growth inhibition (%). It counts as cell-based, human.
The test system of a further data set is A498. Description: NCI-60 SRB screen. Conditions: Homo sapiens, single dose 10^−5 M, read-out: Growth inhibition (%). Format: cell-based, human.
The subject of the next data set is PC-3. Description: NCI-60 SRB screen. Format: cell-based, human. To be noted: Homo sapiens, single dose 10^−5 M, read-out: Growth inhibition (%).
In another data set the test system is DU-145. Description: NCI-60 SRB screen. Format: cell-based, human. Conditions: Homo sapiens, single dose 10^−5 M, read-out: Growth inhibition (%).
For another data set, the system named is MCF7. The data set is described as follows: NCI-60 SRB screen. It counts as cell-based, human. Conditions: Homo sapiens, read-out: Growth inhibition (%).
A further data set relates to MDA-MB-231/ATCC. The data set is described as follows: NCI-60 SRB screen. Format: cell-based, human. Conditions: Homo sapiens, single dose 10^−5 M, read-out: Growth inhibition (%).
For another data set, the system named is BT-549. The data set is described as follows: NCI-60 SRB screen. Format: cell-based, human. To be noted: Homo sapiens, single dose 10^−5 M, read-out: Growth inhibition (%).
The next data set relates to T-47D. The data set is described as follows: NCI-60 SRB screen. Format: cell-based, human. To be noted: Homo sapiens, T47D, single dose 10^−5 M, read-out: Growth inhibition (%).
The subject of the next data set is MDA-MB-468. The data set is described as follows: NCI-60 SRB screen. It counts as cell-based, human. To be noted: Homo sapiens, single dose 10^−5 M, read-out: Growth inhibition (%).
Data set [1] has as its system breast cancer cell line (MCF-7). The data set is described as follows: MTT cytotoxicity assay. It counts as cell-based, human. How it is done:
(§1) The MTT method for monitoring in vitro cytotoxicity was used with multiwell plates. Three human cell lines, namely prostate cancer cell line (PC-3), renal cancer cell line (UO-31), and breast cancer cell line (MCF-7) were obtained from the American Type Culture Collection ATCC, Manassas, VA, USA). The cells were trypsinized and seeded in 96 well plates with a density of 1.2 − 1.8 × 10,000 cells/well for 24 h at 37 °C. After treating the cells with five concentrations of compound 5c (0.01, 0.1, 1, 10, 100 µM), an MTT solution (Sigma Co., St. Louis, MO, USA) (5 mg/mL in phosphate buffer solution) was applied to each well and […]. The plates were cultivated in 5% CO2 for 4 h at 37 °C. Successively, the remaining formazan crystals were dissolved in 100 µl of DMSO, and the absorbance was determined with the ROBONIK P2000 spectrophotometer at a wavelength of 570 nm. The obtained values were analysed using Gen5 software (BioTek, UK). The proliferation percentage in each treated cell line was standardised based on their control wells. Both tests have been conducted in triplicate. The IC50 values were calculated using sigmoidal dose-response curve fitting models. […] Each test included a blank containing a complete medium without cells.
For orientation: Formazan colour is commonly taken as a measure of viable cells.

The subject of data set [2] is prostate cancer cell line (PC-3). The data set is described as follows: MTT cytotoxicity assay. It counts as cell-based, human. Here is the method:
as §1

In data set [3] the test system is renal cancer cell line (UO-31). Description: MTT cytotoxicity assay. It counts as cell-based, human. Here is the method: as §1
The next data set has as its system RPMI-8226. Description: NCI-60 SRB screen. It counts as cell-based. To be noted: Homo sapiens, single dose 10^−5 M, read-out: Growth inhibition (%).
The subject of another data set is SF-539. Description: NCI-60 SRB screen. It counts as cell-based, human. To be noted: Homo sapiens; single dose 10^−5 M; SF-539, CNS cancer; read-out: Growth inhibition (%).
The next data set concerns SNB-19. Description: NCI-60 SRB screen. To be noted: Homo sapiens; single dose 10^−5 M; SNB-19, CNS cancer; read-out: Growth inhibition (%). It counts as cell-based.
The test system of the next data set is SNB-75. Description: NCI-60 SRB screen. Conditions: Homo sapiens; single dose 10^−5 M; SNB-75, CNS cancer; read-out: Growth inhibition (%). Format: cell-based, human.
Another data set has as its system U251. The data set is described as follows: NCI-60 SRB screen. Format: cell-based, human. To be noted: Homo sapiens, U-251; single dose 10^−5 M; U251, CNS cancer; read-out: Growth inhibition (%).
Where [4] appears, read: single dose 10^−5 M, MCF-7, Breast cancer.

Read-outs that look alike come from different tables or passages of the source.

For orientation: inhibition means the change of the read-out against control, counted positive when it falls. What is called melting point is the temperature, or range, at which the solid turns liquid. `COc1ccc(C2NC(=O)C(C#N)c3c2sc2c(F)cccc32)c(OC)c1` (stereo not shown) [Compound 5a, 1-(2,4-Dimethoxyphenyl)-4-cyano-8-fluoro-1,2-dihydro[1]benzothieno [2,3-c]pyridin-3(4H)-one] came in with a melting point of 100 to 102 °C. Moreover, in the data set on OVCAR-5 (OVCAR-5), the inhibition at 10 µM is 1.24%. In addition, the inhibition at 10 µM with OVCAR-8 (OVCAR-8) is 38.7%. The inhibition at 10 µM with A498 (A498) amounted to 74.8%. Also, the inhibition at 10 µM in the data set with PC-3 (PC-3) was 43.2%. For the same molecule, in the data set on DU-145 (DU-145), the inhibition at 10 µM was 9.51%. In the data set with MCF7 (MCF-7, single dose 10^−5 M), the inhibition at 10 µM was 75.5%. Besides, in the data set with MDA-MB-231/ATCC (MDA-MB-231, MDAMB231/ATCC), the inhibition at 10 µM was determined as 27.3%. For the same molecule, in the data set on BT-549 (BT-549), the inhibition at 10 µM came to 78.6%. Besides, the inhibition at 10 µM in the data set on T-47D worked out at 38.3%. Moreover, in the data set on MDA-MB-468 (MDA-MB-468), the inhibition at 10 µM came to 75.7%. Moreover, the “potency compared to staurosporine” value in data set [1] is “moderate activity”. Besides, the “potency compared to staurosporine” value in [2] is given as “moderate activity”. Moreover, the “potency compared to staurosporine” value in [3] was “weak activity”.

`COc1ccc(C2NC(=O)C(C#N)c3c2sc2c(F)cccc32)cc1` (stereo not shown) [Compound 5b, 4-Cyano-8-fluoro-1-(4-methoxyphenyl)-1,2-dihydro[1]benzothieno[2,3-c] pyridin-3(4H)-one] came in with a melting point of 103 to 105 °C. For the same molecule, the inhibition at 10 µM in the data set with RPMI-8226 (RPMI-8226) is 36.9%. Moreover, in the data set with OVCAR-5 (OVCAR-5), the inhibition at 10 µM was 14.4%. For the same molecule, the inhibition at 10 µM in the data set with OVCAR-8 (OVCAR-8) came to 30.2%. In addition, the inhibition at 10 µM in the data set with A498 (A498) turned out to be 68.8%. Further, the inhibition at 10 µM in the data set on PC-3 (PC-3) is 50.6%. Also, the inhibition at 10 µM with DU-145 (DU-145) worked out at 35.2%. Moreover, in the data set with MCF7 (MCF-7, single dose 10^−5 M), the inhibition at 10 µM was found to be 67.4%. Besides, the inhibition at 10 µM in the data set on MDA-MB-231/ATCC (MDA-MB-231, MDAMB231/ATCC) worked out at 28.8%. In the data set on BT-549 (BT-549), the inhibition at 10 µM amounted to 44.6%. Besides, the inhibition at 10 µM with T-47D came to 19.9%. Also, the inhibition at 10 µM in the data set with MDA-MB-468 (MDA-MB-468) is 66.3%. For the same molecule, the “potency compared to staurosporine” value in data set [1] is reported as “moderate activity”. Further, the “potency compared to staurosporine” value in data set [2] is “moderate activity”. The “potency compared to staurosporine” value in [3] is listed as “moderate activity”.

With `N#CC1=C(N2CCCCC2)NC(c2cccc([N+](=O)[O-])c2)c2sc3c(F)cccc3c21` (stereo not shown) [Compound 8f, 4-Cyano-3-(piperidin-1-yl)-8-fluoro-1-(3-nitrophenyl)-1,2-dihydro [1]benzothieno[2,3-c]pyridine], the melting point was in the range of 280 to 282 °C. Also, the inhibition at 10 µM in the data set with RPMI-8226 (RPMI-8226, Leukaemia) stood at 14.9%. Moreover, the inhibition at 10 µM with SF-539 came to 6.49%. The inhibition at 10 µM with SNB-19 was determined as 1.38%. Also, in the data set on SNB-75, the inhibition at 10 µM is 5.45%. The inhibition at 10 µM with U251 is -6.11%. Also, the inhibition at 10 µM with OVCAR-5 (OVCAR-5, Ovarian cancer) worked out at 5.19%. Further, the inhibition at 10 µM with OVCAR-8 (OVCAR-8, Ovarian cancer) was -0.33%. In the data set on A498 (A498, Renal cancer), the inhibition at 10 µM was -0.87%. Besides, in the data set on PC-3 (PC-3, Prostate cancer), the inhibition at 10 µM is 8.87%. Also, in the data set with DU-145 (DU-145, Prostate cancer), the inhibition at 10 µM is -8.32%. In addition, in the data set with MCF7 (setting [4]), the inhibition at 10 µM was -0.95%. Moreover, in the data set on MDA-MB-231/ATCC (MDA-MB 231/ATCC, Breast cancer), the inhibition at 10 µM was 15.1%. Also, the inhibition at 10 µM in the data set with BT-549 (BT-549, Breast cancer) came out at 1.03%. For the same molecule, the inhibition at 10 µM in the data set on T-47D (Breast cancer) turned out to be 2.45%. Moreover, the inhibition at 10 µM in the data set with MDA-MB-468 (MDA-MB-468, Breast cancer) was -8.03%.

As for `O=[N+]([O-])c1cccc(C2NC3=C(Nc4ccccc4N3)c3c2sc2c(F)cccc32)c1` (stereo not shown) [Compound 9, 9-Fluoro-7-(3-nitrophenyl)-5,6,7,13-tetrahydro[1]benzothieno[3′,2′:4,5]-pyrido[2,3-b]quinoxaline], the melting point was 160 to 162 °C. Further, in the data set with RPMI-8226 (RPMI-8226, Leukaemia), the inhibition at 10 µM was determined as 12.1%. Moreover, the inhibition at 10 µM with SF-539 is 3.93%. Moreover, the inhibition at 10 µM with SNB-19 was -0.03%. Also, the inhibition at 10 µM with SNB-75 worked out at 10.2%. Also, the inhibition at 10 µM in the data set with U251 was -3.59%. Also, the inhibition at 10 µM in the data set with OVCAR-5 (OVCAR-5, Ovarian cancer) was 3.15%. For the same molecule, the inhibition at 10 µM in the data set with OVCAR-8 (OVCAR-8, Ovarian cancer) is -3.4%. Moreover, the inhibition at 10 µM with A498 (A498, Renal cancer) is -0.12%. Moreover, the inhibition at 10 µM with PC-3 (PC-3, Prostate cancer) was 7.47%. Moreover, the inhibition at 10 µM in the data set on DU-145 (DU-145, Prostate cancer) is -11.4%. Besides, the inhibition at 10 µM with MCF7 (setting [4]) is 1.91%. Also, the inhibition at 10 µM in the data set on MDA-MB-231/ATCC (MDA-MB 231/ATCC, Breast cancer) was found to be 17.8%. The inhibition at 10 µM with BT-549 (BT-549, Breast cancer) was 5.02%. In addition, the inhibition at 10 µM in the data set with T-47D (Breast cancer) is -5.91%. Also, in the data set with MDA-MB-468 (MDA-MB-468, Breast cancer), the inhibition at 10 µM was -10.6%.
